Measurements as given in patent publication US10238713B2, “Cyclic tetrapeptides and therapeutic applications thereof” (LODZ UNIVERSITY OF TECHNOLOGY, priority 2010, dated 2019).
Non-standard residues stand in square brackets, D forms with d. Residues, ends and D or L forms follow the SMILES beside them. Oic = O=C(O)[C@@H]1C[C@@H]2CCCC[C@@H]2N1; Phe(4-Cl) = N[C@@H](Cc1ccc(Cl)cc1)C(=O)O; Phe(4-I) = N[C@@H](Cc1ccc(I)cc1)C(=O)O; Phe(4-Me) = Cc1ccc(C[C@H](N)C(=O)O)cc1; 2Nal = N[C@@H](Cc1ccc2ccccc2c1)C(=O)O; β3hY = N[C@H](CC(=O)O)Cc1ccc(O)cc1; Hyp = O=C(O)[C@@H]1C[C@@H](O)CN1; 3Pal = N[C@@H](Cc1cccnc1)C(=O)O; Tic = O=C(O)[C@@H]1Cc2ccccc2CN1; β3hF = N[C@H](CC(=O)O)Cc1ccccc1; ΔPro = O=C(O)[C@@H]1C=CCN1

How the values were obtained:
[1] = system: mice, carrageenan air pouch; experiment: Carrageenan air-pouch test (exudate cell number); assay type: in vivo, mouse; conditions: peptides 100 μg i.p. one hour before carrageenan, 24 h; FIGS. 18A-18B
Procedure: (§1) In this and the air-pouch test, 1.5 mg peptide was dissolved in 300 μl of DMSO, then in 0.9% NaCl to achieve the desired dose (250 μg/0.2 ml or 100 μg/0.2 ml). Carrageenan (Sigma) was dissolved in 0.9% aqueous NaCl (overnight). 50 μl of 2% carrageenan solution was injected intradermally into hind foot pads. The peptides were given in a single 250 μg dose (0.2 ml) per mouse intraperitoneally (i.p.), 30 min before carrageenan administration. Dexamethasone (DEX) (Dexaven, Polfa, Poland), a reference drug, was given i.p. in dose 25 μg per mouse. Control mice were administered i.p. appropriately diluted solvent (DMSO in aqueous NaCl) instead of peptides. The foot pads of “background” (BG) mice were injected with 50 μl of 0.9% aqueous NaCl. Foot pad edema was measured with a spring caliper, 2 h, 3 h and 4 h after administration of carrageenan. The results are presented in FIGS. 17A, 17B and 17C as mean values of the antigen-specific increase of the foot pad thickness measured in 5 mice in each experimental group and expressed in mm ±SE (only results from measurements 4 h following administration of carrageenan are presented in figures). Statistics: FIG. 17A: Control vs: DEX P=0.0001; 4B8M P=0.0001; P25 NS (P=1.0000); P28 NS (P=1.0000); P31 NS (P=0.0528); P35 P=0.0008 (ANOVA of Kruskal-Wallis); FIG. 17B: Statistics: Control vs: P22 NS (P=1.0000); P26 NS (P=1.0000); P27 P=0.0050; P30 P=0.0004; P33-b NS (P=1.0000); SP00-b P=0.0001; P00S-b NS (P=1.0000) (ANOVA of Kruskal-Wallis); FIG. 17C: Statistics: Control vs: P21 P=0.0147; P23-2 P=0.0083; P24 P=0.0001; P29 NS (P=0.9999); P32 P=0.0001; P33 NS (P=0.6806); P34 NS (P=0.1920) (ANOVA).
Air pouches were formed by subdermal injection into the dorsal region (in a halothane anesthesia) of 5 cm^3 of air (needle 23G x 11/4, 5 ml syringe). On day 3 the air pouches were given an additional 2 ml of air and an inflammatory process was elicited by an intra-pouch injection of 1% of carrageenan in 0.5 ml of 0.9% aqueous NaCl. The peptides were given i.p. at a dose of 100 μg one hour before carrageenan injection into the air pouch. The mice from the “background” (BG) group were given 0.9% aqueous NaCl i.p. and 0.9% aqueous NaCl into the air pouches. Control mice were given appropriately diluted DMSO i.p. and carrageenan into the air pouches. 24 h after carrageenan injection, the mice were sacrificed by cervical dislocation, the air pouches were supplemented with 1 ml of 0.9% aqueous NaCl and the exudates from the air pouches were aspirated using a syringe. The exudates were diluted with 0.9% aqueous NaCl and the cells were counted in a Bürker hemocytometer. Data are presented in FIGS. 18A and 18B as the mean values from 10 mice/group (cell number×10^6 per mouse) ±SE. Then the cells were centrifuged and 0.1 ml of the supernatant was saved for TNF-α determination (see Determination of TNF-α activity, above). The cell pellets were used to perform smears on microscopic glasses, which were stained with Giemsa and May-Grünwald reagents for evaluation of mast cell degranulation. Cell analysis was performed by a histologist using a light microscope and 1000× magnification. The content of intact and degranulated mast cells is given in percentage (mean values from 10 mice/group) ±SE. Statistics: FIG. 18A: BG vs Control P=0.0000; Control vs: DEX P=0.0034; 4B8M P=0.0005; P22 NS (P=0.7275); P26 P=0.0032; P27 NS (P=0.0659); P35 NS (P=1.0000) (ANOVA of Kruskal-Wallis); FIG. 18B: Control vs: P21 NS (P=0.322); P23-2 P=0.0020; P24 P=0.0001; P25 P=0.0418; P28 NS (P=0.3502); P29 NS (P=0.0582); P30 P=0.0006; P31 P=0.0078; P32 P=0.0340; P33 NS (P=0.9993); P34 NS (p=0.0566) (ANOVA).

human PBMC = experiment: Toxicity test: PBMC survival in 24 h culture (MTT); conditions: ANOVA, FIGS. 8A-8F (4B8M repeated per figure)
Procedure: PBMC were isolated by centrifugation on Ficoll-uropoline gradient (density 1.077 g/ml) (Lymphoprep; PAA Laboratories), at 800×g for 20 min at 4° C. The interphase cells, consisting of lymphocytes (20%) and monocytes (80%) were then washed three times with Hanks' medium and re-suspended in the culture medium at density of 2×10^6 cells/ml.
Appropriate dilutions of DMSO in RPMI 1640 medium were used as controls. Cell survival was determined by the MTT colorimetric method (Hansen et al., J. Immunol. Methods, 1989, pp. 203-210). The data are presented as a mean OD value from quadriplicate wells ±standard error (SE). The cultures “Control (−)” contained only cells in the culture medium.
The assay was performed per Hansen et al., J. Immunol. […] Briefly, 25 μl of MTT (5 mg/ml) stock solution was added per well at the end of cell incubation and the plates were incubated for 3 h in a cell culture incubator. Then, 100 μl of the extraction buffer (20% SDS with 50% DMF, pH 4.7) was added. After additional overnight incubation, the optical density was measured at 550 nm (Dynatech 5000).

[2] = system: PHA-induced proliferation of human peripheral blood mononuclear cells (PBMC); experiment: Proliferative response of PBMC to PHA (MTT); assay type: cell-based; conditions: four-day incubation, FIGS. 9A-9F
[3] = system: mice, carrageenan-induced foot pad edema; experiment: Carrageenan-induced foot-pad edema test; assay type: in vivo, mouse; conditions: 4 h after carrageenan; peptides 250 μg i.p., DEX 25 μg i.p., 30 min before; FIGS. 17A-17C
Procedure: as §1

[4] = Solubility in the aqueous culture medium; assay type: physicochemical
Procedure: RPMI-1640 medium (Cibi/Life Technologies, UK), fetal calf serum (FCS, Gibco), DMSO, phytohemagglutinin A (PHA), lipopolysaccharide (LPS) from E. coli strain O111:B4 (Sigma), […]-2,5-diphenyltetrazolium bromide (MTT), SDS and DMF (Sigma). The culture medium consisted of RPMI-1640, 10% addition of FCS, L-glutamine, sodium pyruvate, 2-mercaptoetanol and antibiotics (streptomycin and penicillin). Cyclic tetrapeptides were initially dissolved in DMSO (5 mg/ml), the dissolved in the culture medium to the desired concentration.
The effects of the peptides on PMBC survival in 24h culture are presented in FIGS. 8A, 8B, 8C, 8D, 8E and 8F. Peptide 4B8M (compound I-A) was included as a reference compound. Appropriate dilutions of DMSO were added to control cultures. […] In the figures, P01=compound I-D, P02=compound I-E, P03=compound I-F, P04=compound I-G, P05=compound I-H, P06=compound I-J, P07=compound I-K, P08=compound I-L, P10a=compound I-M, P10b=compound I-N, P11=compound I-O, P21=compound I-R, P-21b=compound I-Q, P22=compound I-S, P23-2=compound I-U, P24=compound I-V, P25=compound I-X, P25-i=compound I-W, P26=compound I-Y, P27=compound I-Z, P28=compound I-AA, P29=compound I-AB, P30=compound I-AC, P31=compound I-AD, P32=compound I-AE, P33=compound I-AG, P33-b=compound I-AF, P34=compound I-AH, P35=compound I-AI, P00S-b=compound I-AJ, SP00-b=compound I-AL.

| solubility in the aqueous culture medium [4] | Structure (SMILES) | air pouch exudate cell number, P vs Control [1] | PBMC survival, P vs DMSO at appropriate dilution (human PBMC; 10 μg/ml) | PBMC survival, P vs DMSO at appropriate dilution (human PBMC; 100 μg/ml) | PHA-induced PBMC proliferation, P vs DMSO at appropriate dilution ([2]; 10 μg/ml) | PHA-induced PBMC proliferation, P vs DMSO at appropriate dilution ([2]; 100 μg/ml) | foot pad edema (increase of foot pad thickness), P vs Control [3] |
| --- | --- | --- | --- | --- | --- | --- | --- |
| – | O=C1C[C@H](Cc2ccccc2)NC(=O)[C@@H]2C[C@@H]3CCCC[C@@H]3N2C(=O)[C@@H]2CCCN2C(=O)[C@H](Cc2ccccc2)N1 [I-Y] (cyclo(FP[Oic][β3hF])) | 0.0032 | 0.9992 | 0.0001 | 0.0001 | 0.0001 | 1.0000 |
| – | O=C1C[C@H](Cc2ccccc2)NC(=O)[C@@H]2CCCN2C(=O)[C@@H]2CCCN2C(=O)[C@H](Cc2ccc(Cl)cc2)N1 [I-V] (cyclo(PP[β3hF][Phe(4-Cl)])) | 0.0001 | 0.9999 | 0.1122 | 1.0000 | 0.4681 | 0.0001 |
| – | O=C1C[C@H](Cc2ccccc2)NC(=O)[C@@H]2CCCN2C(=O)[C@@H]2C=CCN2C(=O)[C@H](Cc2ccccc2)N1 [I-S] (cyclo(F[ΔPro]P[β3hF])) | 0.7275 | 0.9753 | 1.0000 | 0.0275 | 0.0001 | 1.0000 |
| – | O=C1C[C@H](Cc2ccccc2)NC(=O)[C@@H]2Cc3ccccc3CN2C(=O)[C@@H]2CCCN2C(=O)[C@H](Cc2ccccc2)N1 [I-AB] (cyclo(FP[Tic][β3hF])) | 0.0582 | 0.8876 | 0.0001 | 1.0000 | 0.0001 | 0.9999 |
| incomplete solubility | O=C1C[C@H](Cc2ccccc2)NC(=O)[C@@H]2CCCN2C(=O)[C@@H]2CCCN2C(=O)[C@H](Cc2ccc(I)cc2)N1 [I-W] (cyclo(PP[β3hF][Phe(4-I)])) | – | 0.9992 | 0.9602 | 0.0001 | 0.0001 | – |
| – | O=C1C[C@H](Cc2ccc(O)cc2)NC(=O)[C@@H]2CCCN2C(=O)[C@@H]2CCCN2C(=O)[C@H](Cc2ccccc2)N1 [I-AG] (cyclo(FPP[β3hY])) | 0.9993 | 0.0001 | 0.0001 | 1.0000 | 1.0000 | 0.6806 |
| – | Cc1ccc(C[C@@H]2NC(=O)C[C@H](Cc3ccccc3)NC(=O)[C@@H]3CCCN3C(=O)[C@@H]3CCCN3C2=O)cc1 [I-Z] (cyclo(PP[β3hF][Phe(4-Me)])) | 0.0659 | 0.9997 | 0.0236 | 0.9121 | 0.8195 | 0.0050 |
| – | O=C1C[C@H](Cc2ccccc2)NC(=O)[C@@H]2CCCN2C(=O)[C@@H]2CCCN2C(=O)[C@H](Cc2ccc3ccccc3c2)N1 [I-U] (cyclo([2Nal]PP[β3hF])) | 0.0020 | 0.9972 | 0.4949 | 1.0000 | 0.0002 | 0.0083 |
| – | O=C1C[C@H](Cc2ccccc2)NC(=O)[C@@H]2CCCN2C(=O)[C@@H]2CCCN2C(=O)[C@H](Cc2cccnc2)N1 [I-AC] (cyclo([3Pal]PP[β3hF])) | 0.0006 | 0.8178 | 0.9882 | 0.9850 | 0.9871 | 0.0004 |
| – | O=C1C[C@H](Cc2ccccc2)NC(=O)[C@@H]2CCCN2C(=O)[C@@H]2C[C@@H](O)CN2C(=O)[C@H](Cc2ccccc2)N1 [I-R] (cyclo(F[Hyp]P[β3hF])) | 0.322 | 0.6250 | 0.0019 | 0.7122 | 0.0436 | 0.0147 |
| – | O=C1C[C@H](Cc2ccccc2)NC(=O)[C@@H]2CCCN2C(=O)[C@@H]2C[C@@H]3CCCC[C@@H]3N2C(=O)[C@H](Cc2ccccc2)N1 [I-AD] (cyclo(F[Oic]P[β3hF])) | 0.0078 | 1.0000 | 0.9531 | – | 1.0000 | 0.0528 |
